According to ChEMBL document CHEMBL1143031, “First synthesis of 7alpha- and 7beta-amino-DHEA, dehydroepiandrosterone (DHEA) analogues and preliminary evaluation of their cytotoxicity on Leydig cells and TM4 Sertoli cells” (2007):

How the values were obtained:
Format in all cases: functional
[1] = Effect on apoptosis in Sprague-Dawley rat Leydig cells assessed as cell viability at 35 uM after 24 hrs by DAPI test; settings: read-out: Activity
[2] = Effect on necrosis in BALB/c mouse sertoli TM4 cells assessed as cell viability at 70 uM after 24 hrs by Trypan blue test; settings: TM4, 24 h, read-out: Activity
[3] = Effect on cell necrosis in Sprague-Dawley rat Leydig cells assessed as cell viability at 35 uM after 24 hrs by trypan blue test; settings: read-out: Activity
[4] = Effect on apoptosis in BALB/c mouse sertoli TM4 cells assessed as cell viability at 70 uM after 24 hrs by DAPI test; settings: TM4, 24 h, read-out: Activity
[5] = Effect on cell necrosis in Sprague-Dawley rat Leydig cells assessed as cell viability at 70 uM after 24 hrs by trypan blue test; settings: read-out: Activity
[6] = Effect on necrosis in BALB/c mouse sertoli TM4 cells assessed as cell viability at 35 uM after 24 hrs by Trypan blue test; settings: TM4, 24 h, read-out: Activity
[7] = Effect on apoptosis in BALB/c mouse sertoli TM4 cells assessed as cell viability at 35 uM after 24 hrs by DAPI test; settings: TM4, 24 h, read-out: Activity
[8] = Effect on apoptosis in Sprague-Dawley rat Leydig cells assessed as cell viability at 70 uM after 24 hrs by DAPI test; settings: read-out: Activity

Row | SMILES | viability at 35 µM [1] [%] | viability at 70 µM [2] [%] | viability at 35 µM [3] [%] | viability at 70 µM [4] [%] | viability at 70 µM [5] [%] | viability at 35 µM [6] [%] | viability at 35 µM [7] [%] | viability at 70 µM [8] [%]
1 | C[C@]12CC[C@H](O)CC1=C[C@H](N)[C@@H]1[C@@H]2CC[C@]2(C)C(=O)CC[C@@H]12 | 92 | 0 | 93 | 79 | 85 | 64 | 82 | 89
2 | C[C@]12CC[C@H](O)CC1=CC[C@@H]1[C@@H]2CC[C@]2(C)C(=O)CC[C@@H]12 [PRASTERONE] | 95 | 92 | 86 | 90 | 76 | 92 | 90 | 95
